According to US20240262832A1, “SMALL MOLECULE MODULATORS OF GLUCOCEREBROSIDASE ACTIVITY AND USES THEREOF” (Vanqua Bio, Inc., priority 2021, published 2024):
pEC50: −log10 of the molar value.

Target: T1, GCase (Homo sapiens, UniProt P04062)
T1 construct: endogenous in cells; host or cells: HeLa cells
T1 sequence (P04062 40-536): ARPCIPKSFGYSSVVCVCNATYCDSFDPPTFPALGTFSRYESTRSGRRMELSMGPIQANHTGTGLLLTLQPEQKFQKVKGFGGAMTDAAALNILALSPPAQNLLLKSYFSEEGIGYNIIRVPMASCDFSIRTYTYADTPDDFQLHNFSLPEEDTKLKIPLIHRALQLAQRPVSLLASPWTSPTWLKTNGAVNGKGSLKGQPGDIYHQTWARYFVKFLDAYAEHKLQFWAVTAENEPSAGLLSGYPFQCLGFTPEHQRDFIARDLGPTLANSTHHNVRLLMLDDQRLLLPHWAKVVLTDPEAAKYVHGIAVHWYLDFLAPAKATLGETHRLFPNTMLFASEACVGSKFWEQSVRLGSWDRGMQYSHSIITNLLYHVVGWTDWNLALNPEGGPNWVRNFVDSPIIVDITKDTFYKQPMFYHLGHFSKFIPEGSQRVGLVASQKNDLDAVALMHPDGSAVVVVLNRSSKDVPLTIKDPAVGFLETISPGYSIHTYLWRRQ
Experiment: activation of GCase in a live cell PFB assay in HELA cells
Type: cell-based

With `Cn1c(-c2ccccc2)cc2ncc(C(=O)N3CCCC(COc4cccnc4C(F)(F)F)C3)nc21` (centres unmarked) [Compound 50, (5-Methyl-6-phenyl-5H-pyrrolo[2,3-b]pyrazin-3-yl)(3-(((2-(trifluoromethyl)pyridin-3-yl)oxy)methyl)piperidin-1-yl)methanone] as the compound, how does the pEC50 read?
The pEC50 was 4.30 to 5.00.

`c1ccc(OC2CCN(c3cnc4ccccc4n3)CC2)cc1` [Compound 414, 2-(4-Phenoxypiperidin-1-yl)quinoxaline] was tested. Which pEC50 did it give?
Its pEC50 is 4.30 to 5.00.

`FC(F)Cn1ncc2ncc(N3CCC(Oc4cccc(C(F)(F)F)n4)CC3)nc21` [Compound 309, 1-(2,2-Difluoroethyl)-6-(4-((6-(trifluoromethyl)pyridin-2-yl)oxy)piperidin-1-yl)-1H-pyrazolo[3,4-b]pyrazine] was tested. Which pEC50 did it give?
Its pEC50 is 4.30 to 5.00.

With `CCCCCCC(C)C(=O)N1CCCC(COc2ccccc2)C1` (centres unmarked) [Compound 132] as the compound, how does the pEC50 read?
The pEC50 was over 5.00.

`COc1ccc(OCC2CCN(C(=O)Nc3cnn(C)c3C)CC2)cc1` [Compound 439] was tested. Which pEC50 did it give?
The pEC50 was 4.00 to 4.30.

How did the pEC50 turn out when `O=C(N1CCC(Oc2ccccc2)CC1)C1(c2ccccc2)CCCC1` [Compound 404, 4-Phenoxy-1-(1-phenylcyclopentanecarbonyl)piperidine] was run?
The pEC50 was 4.30 to 5.00.

How did the pEC50 turn out when `O=C(c1cc(-c2cccc(F)c2)no1)N1CCCC(COc2ccccc2)C1` (centres unmarked) [Compound 197] was run?
Its pEC50 is 4.30 to 5.00.

With `O=C(N1CCC(Oc2ccc(C(F)(F)F)cn2)CC1)C1(c2ccccc2)CCOCC1` [Compound 381] as the compound, how does the pEC50 read?
The pEC50 was 4.30 to 5.00.

`COc1cccn(CC(=O)N2CCC(OCc3ccccc3)CC2)c1=O` [Compound 447] was tested. Which pEC50 did it give?
The pEC50 was under 4.00.

How did the pEC50 turn out when `COC1CC(COc2cccnc2C(F)(F)F)CN(c2cnc3cnn(CC(F)F)c3n2)C1` (centres unmarked) [Compound 291, 1-(2,2-Difluoroethyl)-6-(3-methoxy-5-(((2-(trifluoromethyl)pyridin-3-yl)oxy)methyl)piperidin-1-yl)-1H-pyrazolo[3,4-b]pyrazine] was run?
Its pEC50 is over 5.00.

How did the pEC50 turn out when `O=C(c1nnc(C2(c3ccccc3)CCOC2)o1)N1CCCC(COc2ccccc2)C1` (centres unmarked) [Compound 76, 3-(phenoxymethyl)-1-[5-(3-phenyloxolan-3-yl)-1,3,4-oxadiazole-2-carbonyl]piperidine] was run?
The pEC50 was 4.30 to 5.00.

With `CCCC(C(=O)N1CCCC(COc2ccccc2)C1)n1nccc1C1CC1` (centres unmarked) [Compound 9] as the compound, how does the pEC50 read?
The pEC50 was 4.30 to 5.00.

With `FC(F)Cn1ncc2ncc(N3C[C@@H]4[C@@H](COc5ccc(C(F)(F)F)nc5)[C@@H]4C3)nc21` [Compound 63, (1R,5S,6S)-3-[1-(2,2-difluoroethyl)-1H-pyrazolo[3,4-b]pyrazin-6-yl]-6-({[6-(trifluoromethyl)pyridin-3-yl]oxy}methyl)-3-azabicyclo[3.1.0]hexane] as the compound, how does the pEC50 read?
The pEC50 was 4.30 to 5.00.

How did the pEC50 turn out when `C[C@@H]1C[C@H](COc2cccnc2C(F)(F)F)CN(c2cnc3cnn(CC45CC(C4)C5)c3n2)C1` [Compound 281, 1-(Bicyclo[1.1.1]pentan-1-ylmethyl)-6-((3R,5S)-3-methyl-5-(((2-(trifluoromethyl)pyridin-3-yl)oxy)methyl)piperidin-1-yl)-1H-pyrazolo[3,4-b]pyrazine] was run?
The pEC50 was over 5.00.

`O=C(N1CCCC(COc2ccccc2)C1)C1(c2cnc(-c3ccccc3)s2)CCOCC1` (centres unmarked) [Compound 279, (3-(Phenoxymethyl)piperidin-1-yl)(4-(2-phenylthiazol-5-yl)tetrahydro-2H-pyran-4-yl)methanone] was tested. Which pEC50 did it give?
Its pEC50 is over 5.00.

`FC(F)Cn1ncc2ncc(N3CC(COc4cccnc4C(F)(F)F)CC(F)(F)C3)nc21` (centres unmarked) [Compound 21, 3-({1-[1-(2,2-difluoroethyl)-1H-pyrazolo[3,4-b]pyrazin-6-yl]-5,5-difluoropiperidin-3-yl}methoxy)-2-(trifluoromethyl)pyridine] was tested. Which pEC50 did it give?
Its pEC50 is 4.30 to 5.00.

How did the pEC50 turn out when `C[C@@H]1CC[C@H](COc2cc(C(F)(F)F)ccn2)CN1c1cnc2cnn(CC(F)F)c2n1` [Compound 276, 1-(2,2-Difluoroethyl)-6-((2R,5S)-2-methyl-5-(((4-(trifluoromethyl)pyridin-2-yl)oxy)methyl)piperidin-1-yl)-1H-pyrazolo[3,4-b]pyrazine] was run?
Its pEC50 is 4.00 to 4.30.

How did the pEC50 turn out when `Cc1nc(-n2cccc2)sc1C(=O)N1CCCC(COc2ccccc2)C1` (centres unmarked) [Compound 163] was run?
Its pEC50 is 4.30 to 5.00.

How did the pEC50 turn out when `O=C(c1ccn(Cc2ccccc2)n1)N1CCCC(COc2ccccc2)C1` (centres unmarked) [Compound 11] was run?
The pEC50 was 4.30 to 5.00.

How did the pEC50 turn out when `O=C(N1CCCC(COc2ncccc2C(F)(F)F)C1)N1CCOC(Cc2ccccc2)C1` (centres unmarked) [Compound 258, (2-Benzylmorpholino)(3-(((3-(trifluoromethyl)pyridin-2-yl)oxy)methyl)piperidin-1-yl)methanone] was run?
The pEC50 was 4.00 to 4.30.

`O=C(c1ccc2cc[nH]c2c1)N1C[C@@H]2[C@@H](COc3cccc(C(F)(F)F)n3)[C@@H]2C1` [Compound 74, 6-[(1R,5S,6S)-6-({[6-(trifluoromethyl)pyridin-2-yl]oxy}methyl)-3-azabicyclo[3.1.0]hexane-3-carbonyl]-1H-indole] was tested. Which pEC50 did it give?
Its pEC50 is 4.30 to 5.00.

`O=C(Cc1ccnn(-c2ccccc2)c1=O)N1CCCC(COc2ccccc2)C1` (centres unmarked) [Compound 44, 4-(2-Oxo-2-(3-(phenoxymethyl)piperidin-1-yl)ethyl)-2-phenylpyridazin-3(2H)-one] was tested. Which pEC50 did it give?
The pEC50 was under 4.00.

How did the pEC50 turn out when `O=c1cc(-c2ccccc2)cc(N2CCC[C@H](COc3cccnc3C(F)(F)F)C2)[nH]1` [Compound 300, (S)-4-Phenyl-6-(3-(((2-(trifluoromethyl)pyridin-3-yl)oxy)methyl)piperidin-1-yl)pyridin-2(1H)-one] was run?
Its pEC50 is 4.30 to 5.00.

With `CCCc1[nH]ncc1C(=O)N1CCC(OCc2ccccc2)CC1` [Compound 465] as the compound, how does the pEC50 read?
The pEC50 was 4.00 to 4.30.

`COc1cc(C(=O)N2CCCC(COc3ccccc3)C2)c(Cl)cc1Cl` (centres unmarked) [Compound 155] was tested. Which pEC50 did it give?
The pEC50 was 4.30 to 5.00.

`FC(F)Cn1ncc2ncc(N3CCC(COc4ncccc4C(F)(F)F)CC3)nc21` [Compound 313, 1-(2,2-Difluoroethyl)-6-(4-(((3-(trifluoromethyl)pyridin-2-yl)oxy)methyl)piperidin-1-yl)-1H-pyrazolo[3,4-b]pyrazine] was tested. Which pEC50 did it give?
The pEC50 was 4.30 to 5.00.

How did the pEC50 turn out when `O=C(c1nnc(C(F)(F)c2ccccc2)o1)N1CCCC(COc2ccccc2)C1` (centres unmarked) [Compound 51, (5-(Difluoro(phenyl)methyl)-1,3,4-oxadiazol-2-yl)(3-(phenoxymethyl)piperidin-1-yl)methanone] was run?
Its pEC50 is under 4.00.

How did the pEC50 turn out when `COCCNc1nc2cc(C(=O)N3CCC(O)(CO)CC3)ccc2n1C` [Compound 486] was run?
Its pEC50 is 4.30 to 5.00.

How did the pEC50 turn out when `COc1ccc(OCC2CCN(Cc3cscn3)CC2)cc1` [Compound 477] was run?
The pEC50 was over 5.00.

How did the pEC50 turn out when `C[C@H]1CCN(c2cnc3cnn(CC(F)F)c3n2)C[C@H]1COc1cccnc1C(F)(F)F` [Compound 48b, 1-(2,2-difluoroethyl)-6-((3S,4S)-4-methyl-3-(((2-(trifluoromethyl)pyridin-3-yl)oxy)methyl)piperidin-1-yl)-1H-pyrazolo[3,4-b]pyrazine] was run?
The pEC50 was under 4.00.

How did the pEC50 turn out when `O=C(CCc1cccc(C(F)(F)F)c1)N1CCCC(COc2ccccc2)C1` (centres unmarked) [Compound 150] was run?
The pEC50 was 4.30 to 5.00.

`COc1ccc(C(F)(F)C(=O)N2CCCC(COc3ccccc3)C2)cc1` (centres unmarked) [Compound 152] was tested. Which pEC50 did it give?
The pEC50 was 4.30 to 5.00.

With `O=C(c1ccc2cc[nH]c2c1)N1CCC(Oc2ccc(C(F)(F)F)cn2)CC1` [Compound 333, (1H-Indol-6-yl)(4-((5-(trifluoromethyl)pyridin-2-yl)oxy)piperidin-1-yl)methanone] as the compound, how does the pEC50 read?
The pEC50 was 4.30 to 5.00.

How did the pEC50 turn out when `COc1ccc(OCC2CCN(Cc3nnc(C4CC(N)C4)n3C)CC2)cc1` (centres unmarked) [Compound 473] was run?
The pEC50 was under 4.00.

`O=C(c1ccc2cc[nH]c2c1)N1CCC(OCc2ccccc2)CC1` [Compound 415, 6-[4-(Benzyloxy)piperidine-1-carbonyl]-1H-indole] was tested. Which pEC50 did it give?
Its pEC50 is 4.00 to 4.30.
